{
  "source": "patent US20080279843A1",
  "about": "“Method For Improving Insulin Sensitivity By Administering an Inhibitor of Antitrypsin” (Essential SkinCare, LLC, priority 2003, published 2008)",
  "key": {"[1]": {"system": "C57/Black female mice", "test": "Glucose tolerance test with insulin and purified AT (Example 3)", "type": "in vivo", "settings": "highly purified AT 1.2 mg/mouse i.p. 24 h prior to insulin; glucose 3 g/kg i.p.", "experimental": "C57/Black female mice weighing 23-25 g were fasted for 16 hours. Five animals were used for each of the three treatment groups. The first treatment group received intraperitoneal injections of 1200 μg purified AT, i.e. AT purified by the procedure of Example 1. Exactly 23 hours and 45 minutes after the AT was administered to the first treatment group, the animals in the first and second treatment group received 0.5 I.U. of insulin. Exactly 15 minutes after the insulin was administered (i.e., 24 hours after AT was administered to the first treatment group), glucose (3 g/kg) was injected intraperitoneally into the first, second and third treatment group. Blood samples were immediately measured with the fast Glucose C test (Wako Chemicals Inc. Richmond, Va., USA). The data presented are the mean ±S.D. of five determinations, one with each animal."}, "[2]": {"system": "differentiated rat L6 muscle cells", "test": "Cellular uptake of D-[14C]glucose", "type": "cell-based", "experimental": "Rat L6 skeletal muscle cells were obtained from the American Type Culture Collection, Rockville, Md. L6 cell monolayers were induced to differentiate in Minimal Essential Medium (MEM) containing 2% (v/v) fetal bovine serum (FBS) and 1% (v/v) antibiotic/antimycotic solution. The cells were fed fresh medium every 48 hours. Myoblast differentiation, which occurred by about the 7-9th day, was monitored by phase contrast microscopy. Differentiated L6 cells are widely used models for studying glucose metabolism in the skeletal muscle. The present study was focused on these cells, because skeletal muscle accounts for about 70-80% of total blood glucose metabolism in the human body.\nTo examine cellular glucose uptake and metabolism, differentiated (attached) cells in 12-well plates were incubated at 37° C. in a CO2 incubator (95% air: 5% CO2) with D-[^14C]glucose (1 μCi/mL) in 2% FBS-containing medium containing 5.5 mM unlabeled glucose for 0.5-6 hours as indicated at the corresponding Figures. At the termination of incubation, the medium was removed. An aliquot of the medium was taken to determine the loss of [^14C]glucose from the medium which corresponds to its uptake by cells. Cells were washed twice with 3 ml medium to remove traces of medium containing unincorporated radioactivity. Ice-cold 99.8% methanol/0.2% water (v/v) mixture (1 ml) was then added to the monolayers and cells were extracted for 2 hours at −20° C. […] The methanol phase (1 ml) and a following 1 ml methanol wash were added to 2 ml chloroform followed by the addition of 3 ml water. Of the resulting two phases (separation was facilitated by brief centrifugation), the lower phase contained the total radiolabeled lipids, while the upper phase contained [^14C]glucose.\nAliquots of the upper and lower phases were taken to scintillation vials to determine the amounts of radiolabeled glucose and total lipids, respectively, by liquid scintillation counting. Precipitated [^14C]glycogen was suspended in 0.75 ml of 1 M NaOH and transferred to scintillation vial. This procedure was repeated with another 0.75 ml aliquot of NaOH. To neutralize the suspension, […] (approximately 150 μL) was then added to the vials, followed by the addition of 8.5 ml Ecolume (scintillation fluid). While the 1 M NaOH suspension contained some particulate material (mostly protein which was not labeled with radiolabeled glucose), no precipitate remained in the suspension after addition of Ecolume. […] No additional radioactivity could be removed from the well by neutralized 30% KOH.\nThree groups of differentiated L6 cells, incubated in 12-well plates in 2% FBS-containing medium, were treated as follows. A first control group ([…]) was untreated. A second group (▴) was treated with 500 nM insulin for 30 min. A third group (▪) was treated first with 0.4 mg/ml of AT followed by an addition of 500 nM insulin for 30 min. Following the addition of D-[^14C]glucose, each group was incubated in the continuous presence of insulin and AT, as described above, for 0.5-6 hours.\nFour groups of differentiated L6 cells, incubated in 12-well plates in 2% FBS-containing medium, were treated as follows. A first control group was untreated. A second group was treated with 500 nM insulin for 30 min. A third group was treated with 0.05 to 0.4 mg/ml of AT for 10 min. Finally, a fourth group was treated with 0.05 to 0.4 mg/ml of AT for 10 min followed by the addition of 500 nM insulin for 30 min. […]"}, "[3]": {"system": "C57/Black female mice", "test": "Glucose tolerance test with purified AT alone (Example 4)", "type": "in vivo", "settings": "mice fasted 24 h; for Glucose level: purified AT 1200 μg i.p. 24 h before glucose 3 g/kg i.p., mean ± S.D., n=4", "experimental": "C57/Black female mice, weighing 22-25 g were fasted for 24 hours. Four animals were used for each of two groups. The first group received intraperitoneal injections of 1200 μg purified AT, i.e. AT purified by the procedure of Example 1. Exactly 24 hours after the AT was administered to the first group, glucose (3 g/kg) was injected intraperitoneally into mice in both groups. Blood samples were immediately measured with the fast Glucose C test (Wako Chemicals Inc. Richmond, Va., USA). The experiment was repeated a second time.\nThe data presented for each experiment are the mean ±S.D. of four determinations, one with each animal."}, "[4]": {"settings": "highly purified AT 1200 μg i.p. 24 h before glucose 3 g/kg i.p."}},
  "data": [
    {"substance": "α1-antitrypsin [AT]", "values": [
      {"measurement": "Effect of AT on the action of insulin on blood glucose level", "setting": "[1]", "result": "blocked the action of insulin"},
      {"measurement": "Effect of AT on the insulin effect on cellular [14C]glucose, short incubation", "setting": "[2]; 0.4 mg/ml AT, 500 nM insulin, 30 min incubation", "result": "no such inhibitory effects"},
      {"measurement": "Effect of AT on insulin-stimulated uptake of D-[14C]glucose", "setting": "[2]; FIG. 3A, 0.4 mg/ml purified AT, incubations for 2 hrs or 6 hours", "result": "inhibited both insulin effects"},
      {"measurement": "Effect of AT on cellular level of [14C]glucose in the absence of insulin", "setting": "[2]; FIG. 4A, 0.05 to 0.4 mg/ml AT, 5 hours", "result": "did not significantly affect"},
      {"measurement": "Decrease of cellular level of [14C]glucose by AT in the presence of insulin", "setting": "[2]; FIG. 4A, 0.2 to 0.4 mg/ml AT, 500 nM insulin, 5 hours", "result": "at least 50%"},
      {"measurement": "Glucose level", "setting": "[3]; Experiment 1, 0 min", "result": "2.3 ± 0.3", "unit": "mM"},
      {"measurement": "Glucose level", "setting": "[3]; Experiment 1, 30 min", "result": "8.5 ± 0.6", "unit": "mM"},
      {"measurement": "Glucose level", "setting": "[3]; Experiment 1, 60 min", "result": "7.1 ± 0.5", "unit": "mM"},
      {"measurement": "Glucose level", "setting": "[3]; Experiment 1, 120 min", "result": "6.1 ± 0.4", "unit": "mM"},
      {"measurement": "Glucose level", "setting": "[3]; Experiment 1, 180 min", "result": "4.7 ± 0.5", "unit": "mM"},
      {"measurement": "Glucose level", "setting": "[3]; Experiment 2, 0 min", "result": "2.7 ± 0.3", "unit": "mM"},
      {"measurement": "Glucose level", "setting": "[3]; Experiment 2, 30 min", "result": "7.9 ± 0.3", "unit": "mM"},
      {"measurement": "Glucose level", "setting": "[3]; Experiment 2, 60 min", "result": "6.5 ± 0.5", "unit": "mM"},
      {"measurement": "Glucose level", "setting": "[3]; Experiment 2, 120 min", "result": "5.9 ± 0.4", "unit": "mM"},
      {"measurement": "Glucose level", "setting": "[3]; Experiment 2, 180 min", "result": "4.5 ± 0.4", "unit": "mM"},
      {"measurement": "Effect of AT on blood glucose level in the first 60 min after glucose", "setting": "[3]; [4]", "result": "no major effects in the first 60 min"},
      {"measurement": "Effect of AT on return of blood glucose level to near-normal level during the next 120 min", "setting": "[3]; [4]", "result": "clearly delayed return of blood glucose level to near-normal level"}
    ]}
  ]
}
